Reference: US11667602B2, “Compounds and their use” (AstraZeneca AB, priority 2020, dated 2023)
pEC50: −log10 of the molar value. Like-named read-outs stand apart in the source and are kept apart here.

Target: T1, human RXFP1 (Homo sapiens, UniProt Q9HBX9)
T1 sequence (Q9HBX9 1-757): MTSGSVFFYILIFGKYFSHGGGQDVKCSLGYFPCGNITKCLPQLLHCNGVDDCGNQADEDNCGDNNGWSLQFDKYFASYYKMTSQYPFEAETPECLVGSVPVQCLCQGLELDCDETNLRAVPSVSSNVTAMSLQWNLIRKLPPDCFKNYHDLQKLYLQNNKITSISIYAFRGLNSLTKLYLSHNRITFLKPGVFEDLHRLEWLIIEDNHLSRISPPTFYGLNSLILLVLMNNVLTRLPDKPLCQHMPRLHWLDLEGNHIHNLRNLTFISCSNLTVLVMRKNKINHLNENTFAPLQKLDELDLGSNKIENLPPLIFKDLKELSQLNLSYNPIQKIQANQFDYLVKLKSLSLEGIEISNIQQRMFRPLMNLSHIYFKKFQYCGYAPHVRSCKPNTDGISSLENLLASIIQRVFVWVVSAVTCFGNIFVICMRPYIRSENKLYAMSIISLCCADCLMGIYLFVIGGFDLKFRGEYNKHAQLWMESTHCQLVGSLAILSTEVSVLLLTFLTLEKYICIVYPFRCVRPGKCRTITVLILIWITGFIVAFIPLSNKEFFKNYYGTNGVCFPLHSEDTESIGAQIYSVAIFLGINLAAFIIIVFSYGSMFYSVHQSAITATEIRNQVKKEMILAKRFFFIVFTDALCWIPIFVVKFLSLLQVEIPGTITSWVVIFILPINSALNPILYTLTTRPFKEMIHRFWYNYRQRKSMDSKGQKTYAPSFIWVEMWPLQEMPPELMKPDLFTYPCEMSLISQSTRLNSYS
Test: RXFP1 Hu cAMP (Test A)
Format: cell-based
Parameters: expressed in transfected cells; host or cells: Jump-In T-REx CHO-K1 cells (ThermoFisher), induced with 10 ng/ml doxycycline for 24 h
Summary of the method: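 CHO-K1 (Jump-In T-REx), RXFP1 induced w/ 10 ng/ml doxycycline 24 h, cryopreserved. 0.5 mM IBMX final. cAMP by HTRF, 2 h RT, std curve.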

[1] = RXFP1 Hu cAMP, read-out: Test A EC50

| Test A Sinf (RXFP1 Hu cAMP) | pEC50 [1] | Compound | pEC50 (Test A EC50, RXFP1 Hu cAMP) |
| --- | --- | --- | --- |
| 94% | 5.89 | COc1cc(F)c(OC2CCC(CO)(C(=O)O)CC2)cc1C(=O)N[C@H]1C[C@H](OC)C[C@H]1C(=O)NCC(C)(C)C (relative stereo) [Example 549, (1R,4s)-4-(2-Fluoro-4-methoxy-5-(((1S*,2R*,4R*)-4-methoxy-2-(neopentylcarbamoyl)cyclopentyl)carbamoyl)phenoxy)-1-(hydroxymethyl)cyclohexane-1-carboxylic acid] |  |
| 99% | 6.96 | COCCOc1cc(F)c(O[C@H]2CC[C@@](C)(C(=O)O)CC2)cc1C(=O)N[C@@H]1[C@H]2CC[C@H](C2)[C@@H]1C(=O)NCC1(C)CCC1 [Example 391] |  |
| 104% | 6.02 | COc1cc(F)c(OCCCCCCCCC(=O)O)cc1C(=O)N[C@@H]1[C@H]2CC[C@H](C2)[C@@H]1C(=O)Nc1cccc(S(=O)(=O)C(F)(F)F)c1 [Example 437] |  |
| 106% | 9.15 | COc1cc(F)c(O[C@H]2CC[C@@](CO)(C(=O)O)CC2)cc1C(=O)NC1C2CCC(C2)C1C(=O)Nc1cccc(S(=O)(=O)C(F)(F)F)c1 (single isomer, unassigned) [Example 584, (1R,4s)-4-(2-Fluoro-4-methoxy-5-(((1S*,2S*,3R*,4R*)-3-((3-((trifluoromethyl)sulfonyl)phenyl)carbamoyl)bicyclo[2.2.1]heptan-2-yl)carbamoyl)phenoxy)-1-(hydroxymethyl)cyclohexane-1-carboxylic acid] |  |
| 99% | 6.05 | COc1cc(F)c(O[C@H]2CC[C@@](C)(C(=O)O)CC2)cc1C(=O)N[C@@H]1[C@H]2CC[C@H](C2)[C@@H]1C(=O)NC1CCC1 [Example 598] |  |
| 100% | 6.92 | COc1cc(F)c(O[C@H]2CC[C@@](C)(C(=O)O)CC2)cc1C(=O)N[C@@H]1[C@H]2CC[C@H](C2)[C@@H]1C(=O)N[C@H](C)C(C)(C)C#N [Example 615] |  |
| 107% | 6.15 | COc1cc(F)c(OC2CCC(CO)(C(=O)O)CC2)cc1C(=O)NC1CC(OC)CC1C(=O)NCC1(C)CCC1 (single isomer, unassigned) [Example 551, (1R,4s)-4-(2-Fluoro-4-methoxy-5-(((1S*,2R*,4R*)-4-methoxy-2-(((1-methylcyclobutyl)methyl)carbamoyl)cyclopentyl)carbamoyl)phenoxy)-1-(hydroxymethyl)cyclohexane-1-carboxylic acid] |  |
| 91% | 6.49 | COc1cc(F)c(O[C@H]2CC[C@@H](NS(C)(=O)=O)CC2)cc1C(=O)N[C@@H]1[C@H]2CC[C@H](C2)[C@@H]1C(=O)Nc1cccc(S(=O)(=O)C(F)(F)F)c1 [Example 459, (1R,2S,3R,4S)-3-(4-Fluoro-2-methoxy-5-(((1s,4S)-4-(methylsulfonamido)cyclohexyl)oxy)benzamido)-N-(3-((trifluoromethyl)sulfonyl)phenyl)bicyclo[2.2.1]heptane-2-carboxamide] |  |
| 95% | 6.74 | COc1c(F)cc(O[C@H]2CC[C@@](C)(C(=O)O)CC2)cc1C(=O)N[C@@H]1[C@H]2CC[C@H](C2)[C@@H]1C(=O)NC12CC(F)(C1)C2 [Example 390] |  |

Further lines, the compound ahead of its results:

| Compound | Test A Sinf (RXFP1 Hu cAMP) | pEC50 [1] | pEC50 (Test A EC50, RXFP1 Hu cAMP) |
| --- | --- | --- | --- |
| COc1cc(-c2cc(C(=O)N[C@@H]3[C@H]4CC[C@H](C4)[C@@H]3C(=O)Nc3cccc(S(=O)(=O)C(F)(F)F)c3)c(OC)cc2F)ccc1CCC(=O)O [Example 259, 3-(2′-Fluoro-3,4′-dimethoxy-5′-(((1S,2R,3S,4R)-3-((3-((trifluoromethyl)sulfonyl)phenyl)carbamoyl)bicyclo[2.2.1]heptan-2-yl)carbamoyl)-[1,1′-biphenyl]-4-yl)propanoic acid] | 97% | 7.24 |  |
| COc1cc(C#N)c(O[C@H]2CC[C@@](C)(C(=O)O)CC2)cc1C(=O)N[C@@H]1[C@H]2CC[C@H](C2)[C@@H]1C(=O)NC1CCC(C)(C)CC1 [Example 128] | 88% | 7.34 |  |
| COc1cc(F)c(C2CCC(C(=O)O)CC2)cc1C(=O)NC1C2CCC(C2)C1C(=O)Nc1cccc(S(=O)(=O)C(F)(F)F)c1 [Example 268, (1S,4s)-4-(2-Fluoro-4-methoxy-5-(((1S,2R,3S,4R)-3-((3-((trifluoromethyl)sulfonyl)phenyl)carbamoyl)bicyclo[2.2.1]heptan-2-yl)carbamoyl)phenyl)cyclohexane-1-carboxylic acid] | 84% | 6.07 |  |
| (1R,4s)-4-(2-Fluoro-5-(((1S*,2R*)-2-((4-fluoro-3-(pentafluoro-λ6-sulfaneyl)phenyl)carbamoyl)cyclobutyl)carbamoyl)-4-methoxyphenoxy)-1-methylcyclohexane-1-carboxylic acid [Example 571] | 100% |  |  |
| COc1cc(F)c(-c2ccc(C(=O)O)cn2)cc1C(=O)N[C@H]1[C@@H](C(=O)Nc2cccc(S(=O)(=O)C(F)(F)F)c2)[C@@H]2C=C[C@H]1C2 (racemic) [Example 278] | 104% |  |  |
| COc1cc(F)c(O[C@H]2CC[C@@](C)(c3noc(=O)[nH]3)CC2)cc1C(=O)N[C@@H]1[C@H]2CC[C@H](C2)[C@@H]1C(=O)NCC1(C)CCC1 [Example 418, (1R,2S,3R,4S)-3-(4-fluoro-2-methoxy-5-(((1s,4S)-4-methyl-4-(5-oxo-4,5-dihydro-1,2,4-oxadiazol-3-yl)cyclohexyl)oxy)benzamido)-N-((1-methylcyclobutyl)methyl)bicyclo[2.2.1]heptane-2-carboxamide] | 100% |  | 7.19 |
| COc1cc(F)c(O[C@H]2CC[C@@](C)(C(=O)O)CC2)cc1C(=O)N[C@@H]1COCC[C@@H]1C(=O)Nc1ccc(F)c(S(F)(F)(F)(F)F)c1 (racemic) [Example 349] | 113% | 5.74 |  |
| COc1cc(C#N)c(O[C@H]2CC[C@@](C)(C(=O)O)CC2)cc1C(=O)N[C@@H]1[C@H]2CC[C@H](C2)[C@@H]1C(=O)NCCCC1CC1 [Example 132] | 113% |  |  |
| COc1cc(F)c(-c2ccccc2C(=O)O)cc1C(=O)N[C@H]1[C@@H](C(=O)Nc2cccc(S(=O)(=O)C(F)(F)F)c2)[C@@H]2C=C[C@H]1C2 (racemic) [Example 273, rac-2′-Fluoro-4′-methoxy-5′-(((1R,2R,3S,4S)-3-((3-((trifluoromethyl)sulfonyl)phenyl)carbamoyl)bicyclo[2.2.1]hept-5-en-2-yl)carbamoyl)-[1,1′-biphenyl]-2-carboxylic acid] |  | < 4.40 |  |
| COc1cc(C#N)c(O[C@H]2CC[C@@](C)(C(=O)O)CC2)cc1C(=O)N[C@@H]1[C@H]2CC[C@H](C2)[C@@H]1C(=O)NCCCF [Example 135] | 76% |  |  |
| CCC(C)(C)NC(=O)[C@H]1[C@@H]2CC[C@@H](C2)[C@H]1NC(=O)c1cc(O[C@H]2CC[C@@](C)(C(=O)O)CC2)c(C#N)cc1OC [Example 126] | 98% | 7.33 |  |
| COc1cc(C#N)c(O[C@H]2CC[C@@](C)(C(=O)O)CC2)cc1C(=O)Nc1cc(C)ccc1C(=O)NCC1(C)CC1 [Example 174] | 132% | 6.96 |  |
| COc1cc(F)c(-c2ccc(C(=O)O)cc2)cc1C(=O)N[C@H]1[C@@H](C(=O)N[C@H]2CCCN(S(=O)(=O)C(F)(F)F)C2)[C@@H]2C=C[C@H]1C2 (racemic) [Example 311] | 67% | 5.11 |  |
| COc1cc(F)c(O[C@H]2CC[C@@](C)(C(=O)O)CC2)cc1C(=O)N[C@@H]1CCCO[C@@H]1C(=O)Nc1cccc(S(=O)(=O)C(F)(F)F)c1 [Example 357] | 101% | 5.27 |  |
